Read-outs that look alike come from different tables or passages of the source.
Columns and labels:
PLA2g6 = PLA2g6 activity, modified PLA2 assay kit, fibroblast homogenates; assay type: biochemical, human; conditions: S-BEL 25 μM for 10 min; hPSF from control, idPD and fPD^R747W patients
Method: A modified PLA2 assay kit (Cayman for MEFs, and AbCam for hPSF) was used as previously described^21,26. Briefly, each sample of live hPSF or MEF cells was homogenized using a cold lysis buffer (10 mM Tris-HCl, pH 7.0, 300 mM sucrose, 0.5% Triton X-100). To identify specific activity of Ca^2+-independent PLA2g6, the assay buffers were modified to contain no Ca^2+. To assess catalytic activity of PLA2g6, the cells were homogenized and treated with 10 mM EGTA for 10 min, which is known to directly displace inhibitory calmodulin, and fully activate PLA2g6. For analysis of PLA2g6 activation by store depletion, live cells were pretreated with TG (5 μM for 10 min) before homogenization, and homogenates were not treated with 10 mM EGTA. The specificity of PLA2g6 activity in both cases was confirmed by its inhibition with S-BEL (25 μM for 10 min), a chiral-specific suicidal substrate^38 that discriminates PLA2g6 from all other phospholipases. […] The reaction was stopped and the generation of free thiols was visualized by addition of DTNB for 5 min: the absorbance was determined at 405 nm using a standard microplate reader. […]

[1] = system: PLA2g6(L)-dependent Orai1-mediated SOCE; experiment: TG-induced store-operated Ca2+ entry (SOCE), Fura-2 imaging in human primary skin fibroblasts; assay type: cell-based; conditions: Skin fibroblast, 10 μM of DES, hPSF, read-out: inhibition of TG-induced Ca^2+ influx
Method: Intracellular Ca^2+ studies were performed using standard Fura-2 imaging technique. Briefly, the cells were loaded with Fura-2/AM (5 μM) (Invitrogen) and cytosolic Ca^2+ (using F340/F380 ratio) was recorded simultaneously in individual cells. Representative traces in the figures show average (±SD) responses from up to 20 cells recorded simultaneously. Ca^2+ changes are shown by ΔRatio (ΔF340/F380), which is the difference between the basal and peak values of Ca^2+ responses. Summary bar graphs show the average (±SE) from 3 independent experiments for each condition; the total number of cells in each experimental group is identified on the graphs.
SOCE was measured in response to extracellular application of 2-2.5 mM Ca^2+ in the presence of TG. Concentration and time of acute TG treatment was titrated for each cell type to ensure >90% loss of Ca^2+ from TG-sensitive stores at the time of Ca^2+ addition. […] To inhibit PLA2g6 activity, (S)-BEL (S-bromoenol lactone, Cayman, USA) was applied (10-50 μM for 20 min in serum-free medium at 37° C.) to the cells after their loading with Fura-2/AM, and was washed away before the start of experiment.

MEF cells = experiment: LC3^mCherry/eGFP autophagic flow, live cell imaging in MEFs; assay type: cell-based, mouse; conditions: WT MEFs; prolonged TG treatment, 10 nM for 24 hours
Method: Transfection of MEFs was performed using the Amaxa Nucleofector™ system (Lonza, Allendale, N.J., USA). Briefly, the cells were plated in a 6-well plate at a density of 200,000/well. After 24h the cells from each well were collected, centrifuged, re-suspended in 100 μl of electroporation solution (Mirus Bio, Madison, Wis., USA), mixed with 2 μg of the recombinant plasmid DNA and transfected using the T020 program. After electroporation, the cells were plated in 2 ml of warm DMEM containing 10% FBS and 1% penicillin/streptomycin, and grown for 24-48 hours, as specified. Transfection efficiency (verified by expression of GFP or LC3^mCherry/eGFP) was >70%.
Live cell imaging was done using Nikon Ti inverted fluorescence microscope equipped with a Perfect Focus system and environmental chamber (InVivo Scientific). Live cells transfected with LC3^mCherry/eGFP (alone, or in combination with PLA2g6, or its mutants) were imaged in glass-bottom dishes in culture medium at 37° C. and 5% CO2. Images of individual cells were taken using a 60×/1.4 Plan-Apochromat oil immersion objective (Nikon) and filter sets for GFP (ex: 465-496, em: 515-555) and Texas Red (ex: 540-580, em: 600-660). Images of representative cells were analyzed using ImageJ (Wayne Rasband, NIH) software. […]

PLA2g6 ex2^KO mice = experiment: L-DOPA challenge test, balance beam test; assay type: in vivo, mouse
Method: The balance beam test (ref 72, 73) was used to assess the ability of ageing ex2^KO and WT mice to maintain balance while walking along a narrow (2 cm) beam placed 20 cm above a soft mattress. Each mouse was placed on a beam for 2 minutes, and its movement was recorded by video camera. The total travel distance, the number of missteps (paw faults, or slips) during travel, and the number of falls off the beam were analyzed for each mouse, and data summarized for each group as mean±SE. The numbers of animals used for each group are identified on the graphs. L-DOPA challenge test (ref 3) was performed on three age groups (12, 16 and 20 months old) ex2^KO male mice with motor deficits. Control balance beam test was performed in the morning a day before L-3,4-dihydroxyphenylalanine (L-DOPA) challenge. In the morning of the following day, all mice received a single dose of L-DOPA (5, 10 or 25 mg/kg, Sigma) via peritoneal injection. Twenty minutes before L-DOPA administration, mice were given 6 mg/kg of benserazide (Sigma) to inhibit peripheral DOPA decarboxylase. The balance beam test was done 1 h after L-DOPA injection, as described above. Video-recorded data for each mouse were analyzed later, and summarized for each group as mean±SE. The numbers of animals used for each age group are identified next to the graph.

Structure (SMILES): O=C1O/C(=C/Br)CC[C@H]1c1cccc2ccccc12 [S-BEL, S-bromoenol lactone]
- effect on PLA2g6 activity (catalytic and TG-induced) (PLA2g6): inhibition

Structure (SMILES): CC/C(=C(/CC)c1ccc(O)cc1)c1ccc(O)cc1 [DES, diethylstilbestrol]
- inhibition at 10 µM ([1]; control group): 80 ± 1%
- inhibition at 10 µM ([1]; idPD group): 82 ± 4%

Structure (SMILES): C/C=C(/C)C(=O)O[C@H]1C(C)=C2[C@H]([C@@H]1OC(=O)CCCCCCC)[C@@](C)(OC(C)=O)C[C@H](OC(=O)CCC)[C@@]1(O)[C@H]2OC(=O)[C@@]1(C)O [TG, thapsigargin]
- autophagic flow (LC3^mCherry/eGFP) (MEF cells): Autophagic arrest

Structure (SMILES): N[C@@H](Cc1ccc(O)c(O)c1)C(=O)O [L-DOPA, L-3,4-dihydroxyphenylalanine]
- reduction in the number of missteps (balance beam performance) (PLA2g6 ex2^KO mice; 5 mg/kg body weight L-DOPA, peritoneal injection, test 1 h after, 12-month old ex2^KO animals): 60%
- motor coordination of ex2^KO animals after L-DOPA (PLA2g6 ex2^KO mice; 5, 10 or 25 mg/kg, 12, 16 and 20 months old ex2^KO mice): dramatically improved motor coordination

From patent publication US11360102B2, “Biomarkers for the early detection of Parkinson's disease” (BOSTON MEDICAL CENTER CORPORATION, priority 2015, dated 2022)
